Laboratory results as given in ChEMBL document CHEMBL1201862, “PubChem BioAssay data set” (2004).
Calls of active or inactive are those of the source.

How the values were obtained:
[1] = system: Streptococcus; test: Group A Streptococcus viability loss, dose response, counter-screen for streptokinase expression inhibitor project, luminescence, BacTiterGlo (AID 1915); assay type: functional, organism-based;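 further: potency for reduction of bacterial viability or growth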
[2] = molecular target: T1, Streptokinase A (Streptococcus pyogenes serotype M1, UniProt P10520); test: S. pyogenes streptokinase expression inhibitors, potency, dose response, plasminogen activation absorbance, OD405 (AID 1914); assay type: functional, Streptococcus pyogenes M1 GAS;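 further: secreted streptokinase activity via plasminogen activation per viability signal from cell pellet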
T1 sequence (P10520 whole entry): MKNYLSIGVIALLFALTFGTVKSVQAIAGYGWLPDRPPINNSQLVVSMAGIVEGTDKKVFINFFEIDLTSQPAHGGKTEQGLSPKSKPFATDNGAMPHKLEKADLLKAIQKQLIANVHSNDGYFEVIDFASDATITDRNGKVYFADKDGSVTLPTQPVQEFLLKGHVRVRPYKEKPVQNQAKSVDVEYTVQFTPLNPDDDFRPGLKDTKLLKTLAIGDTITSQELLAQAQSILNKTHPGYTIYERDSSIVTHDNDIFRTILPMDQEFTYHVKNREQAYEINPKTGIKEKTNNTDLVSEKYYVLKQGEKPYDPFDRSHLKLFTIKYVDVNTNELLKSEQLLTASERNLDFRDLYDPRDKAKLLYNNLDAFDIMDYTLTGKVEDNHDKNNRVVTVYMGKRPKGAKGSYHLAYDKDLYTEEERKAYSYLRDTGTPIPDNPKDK

[3] = system: Streptococcus sp. 'group A'; test: growth inhibition of control SK(-) GAS strain, dose response, counter-screen for streptokinase expression inhibitor project, luminescence, kanamycin, BacTiterGlo, confirmation (AID 1900); assay type: functional, organism-based
[4] = growth suppression of beta-catenin-knockout colon cells, dose response, cell-based, HCT116, human colon tumor (AID 1045); assay type: functional;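 further: HCT116 colon tumor cells with beta catenin knocked out; cells exposed to compound for 60 hours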
[5] = Counterscreen for inhibitors of Trypanosoma brucei methionyl tRNA synthetase (MetRS): Luminescence-based cell-based high throughput dose response assay to identify compounds that are cytotoxic to Jurkat human T lymphocyte cells.; assay type: functional
[6] = cytotoxicity toward NIH3T3 fibroblasts, dose response, counter-screen, cell-based, ATP luminescence, mouse fibroblasts (AID 2010); assay type: functional;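 further: cells exposed to compound for about 90 hours before reading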
[7] = molecular target: T2, Cytochrome P450 1A2 (Homo sapiens, UniProt P05177);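 further: PubChem cytochrome P450 panel assay, CYP1A2 panel member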
T2 sequence (P05177 whole entry): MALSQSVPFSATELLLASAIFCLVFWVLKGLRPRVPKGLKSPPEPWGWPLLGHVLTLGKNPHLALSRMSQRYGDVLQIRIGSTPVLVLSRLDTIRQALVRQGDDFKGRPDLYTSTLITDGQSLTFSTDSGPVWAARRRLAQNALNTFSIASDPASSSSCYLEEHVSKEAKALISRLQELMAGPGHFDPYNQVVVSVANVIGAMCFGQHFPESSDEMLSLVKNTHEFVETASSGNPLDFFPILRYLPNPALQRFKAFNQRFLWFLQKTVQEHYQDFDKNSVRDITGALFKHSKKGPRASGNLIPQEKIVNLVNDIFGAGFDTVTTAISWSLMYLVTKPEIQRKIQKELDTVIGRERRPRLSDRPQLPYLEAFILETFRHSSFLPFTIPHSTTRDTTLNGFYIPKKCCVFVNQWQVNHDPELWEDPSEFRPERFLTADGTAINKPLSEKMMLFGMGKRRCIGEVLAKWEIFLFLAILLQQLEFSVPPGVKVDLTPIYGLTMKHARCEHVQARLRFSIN

[8] = molecular target: T3, Methionyl-tRNA synthetase, putative (Trypanosoma brucei brucei, UniProt Q38C91); assay type: functional, Trypanosoma brucei brucei strain 927/4 GUTat10.1
T3 sequence (Q38C91 whole entry): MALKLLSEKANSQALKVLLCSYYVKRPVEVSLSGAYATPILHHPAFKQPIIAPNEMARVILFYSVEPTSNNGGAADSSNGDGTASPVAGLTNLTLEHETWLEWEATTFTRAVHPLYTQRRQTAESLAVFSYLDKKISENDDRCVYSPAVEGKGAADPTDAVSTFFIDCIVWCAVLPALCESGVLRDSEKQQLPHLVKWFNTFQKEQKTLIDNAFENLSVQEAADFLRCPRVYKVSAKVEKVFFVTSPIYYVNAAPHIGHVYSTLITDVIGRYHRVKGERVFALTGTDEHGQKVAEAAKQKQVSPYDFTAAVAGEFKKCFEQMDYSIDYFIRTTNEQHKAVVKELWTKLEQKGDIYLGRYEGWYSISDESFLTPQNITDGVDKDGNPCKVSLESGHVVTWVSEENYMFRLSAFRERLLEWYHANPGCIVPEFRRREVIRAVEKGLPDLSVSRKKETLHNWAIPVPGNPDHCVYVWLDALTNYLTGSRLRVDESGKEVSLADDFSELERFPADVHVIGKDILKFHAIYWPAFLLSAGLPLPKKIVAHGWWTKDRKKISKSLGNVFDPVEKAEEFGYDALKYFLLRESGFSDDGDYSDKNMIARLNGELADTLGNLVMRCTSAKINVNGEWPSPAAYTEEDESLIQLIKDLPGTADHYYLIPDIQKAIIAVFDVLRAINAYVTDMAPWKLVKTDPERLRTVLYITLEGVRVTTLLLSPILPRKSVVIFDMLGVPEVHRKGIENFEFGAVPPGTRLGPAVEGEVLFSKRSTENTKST

[9] = molecular target: T4, Calpain-2 catalytic subunit (Sus scrofa, UniProt P43367); test: pig calpain II inhibitor potency, dose response, biochemical, fluorogenic peptide substrate (AID 1420); assay type: functional
T4 sequence (P43367 whole entry): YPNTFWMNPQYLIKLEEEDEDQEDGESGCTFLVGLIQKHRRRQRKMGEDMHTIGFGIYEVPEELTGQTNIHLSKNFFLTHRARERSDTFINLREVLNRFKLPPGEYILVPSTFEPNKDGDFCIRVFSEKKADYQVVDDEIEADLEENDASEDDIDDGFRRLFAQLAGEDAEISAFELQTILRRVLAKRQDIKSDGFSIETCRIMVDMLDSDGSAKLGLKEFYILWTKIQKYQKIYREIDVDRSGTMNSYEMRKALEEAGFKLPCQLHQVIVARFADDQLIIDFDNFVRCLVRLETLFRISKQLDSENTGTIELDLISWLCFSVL

[10] = growth suppression of PTEN-null colon cells, dose response, cell-based, HCT116 PTEN knockout (AID 1047); assay type: functional;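 further: HCT116 colon tumor cells with PTEN knocked out; cells exposed to compound for 60 hours before readout; potency for loss of cell viability measured by luminescence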
[11] = molecular target: T3, Methionyl-tRNA synthetase, putative; assay type: functional, Trypanosoma brucei brucei strain 927/4 GUTat10.1; remark: listed apart in the source
[12] = inhibitors of intracellular T. cruzi replication, confirmation, NIH3T3 host cells, beta-gal luminescence (AID 2044); assay type: functional, cell-based;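 further: intracellular parasites grown in NIH/3T3 mouse fibroblasts as host cells; luminescent beta-galactosidase reporter signal from transgenic T. cruzi replicating inside host cells; inhibitors lower the luminescence signal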
[13] = molecular target: Latent membrane protein 1 (Human herpesvirus 4 (strain B95-8), UniProt P03230); test: TES1-eGFP NF-kB reporter inhibition versus Tet-On dsRED, dose response, selectivity assay for LMP1 NF-kB inhibitor project, imaging, HEK293T, dual-color eGFP/dsRED, cherry-picks (AID 588398); assay type: functional, cell-based
Sequence of Latent membrane protein 1 (P03230 whole entry): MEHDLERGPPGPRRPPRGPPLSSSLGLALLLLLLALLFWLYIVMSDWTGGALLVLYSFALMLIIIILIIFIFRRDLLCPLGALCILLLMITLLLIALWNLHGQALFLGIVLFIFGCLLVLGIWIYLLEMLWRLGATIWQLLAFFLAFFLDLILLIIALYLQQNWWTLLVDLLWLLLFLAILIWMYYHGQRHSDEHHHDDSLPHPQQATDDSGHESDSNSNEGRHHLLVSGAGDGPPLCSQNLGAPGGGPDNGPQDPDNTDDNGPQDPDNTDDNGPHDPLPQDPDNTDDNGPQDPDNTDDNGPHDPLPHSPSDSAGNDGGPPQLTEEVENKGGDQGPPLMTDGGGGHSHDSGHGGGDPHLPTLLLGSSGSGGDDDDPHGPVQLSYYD

[14] = molecular target: Botulinum neurotoxin type F (Clostridium botulinum, UniProt P30996); test: High-throughput multiplex microsphere dose response for inhibitors of toxin protease, specifically Botulinum neurotoxin light chain F protease, compounds from Cherry Pick 02.; assay type: functional; details: read-out: EC50_MICROM
Sequence of Botulinum neurotoxin type F (P30996 1-436 limits assumed): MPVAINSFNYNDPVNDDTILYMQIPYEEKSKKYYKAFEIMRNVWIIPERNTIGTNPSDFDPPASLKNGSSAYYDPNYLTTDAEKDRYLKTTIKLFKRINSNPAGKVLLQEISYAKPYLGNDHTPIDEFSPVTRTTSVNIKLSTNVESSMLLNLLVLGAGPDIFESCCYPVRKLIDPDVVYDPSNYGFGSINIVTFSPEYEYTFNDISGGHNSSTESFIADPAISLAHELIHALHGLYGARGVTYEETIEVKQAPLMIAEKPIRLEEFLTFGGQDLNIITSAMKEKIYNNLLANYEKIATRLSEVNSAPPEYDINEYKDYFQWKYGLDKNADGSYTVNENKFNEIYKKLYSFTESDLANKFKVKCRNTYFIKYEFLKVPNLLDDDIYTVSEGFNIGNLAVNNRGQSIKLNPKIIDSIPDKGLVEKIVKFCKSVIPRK

[15] = molecular target: T5, Low molecular weight phosphotyrosine protein phosphatase (Homo sapiens, UniProt P24666); assay type: functional; details: read-out: IC50_Mean
T5 sequence (P24666 whole entry): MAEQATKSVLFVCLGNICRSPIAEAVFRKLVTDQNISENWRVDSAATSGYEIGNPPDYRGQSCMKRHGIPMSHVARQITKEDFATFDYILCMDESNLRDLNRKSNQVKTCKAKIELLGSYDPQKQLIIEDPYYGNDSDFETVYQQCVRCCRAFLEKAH

[16] = molecular target: T6, DNA repair protein RAD52 homolog (Homo sapiens, UniProt P43351); assay type: functional, biochemical
T6 sequence (P43351 whole entry): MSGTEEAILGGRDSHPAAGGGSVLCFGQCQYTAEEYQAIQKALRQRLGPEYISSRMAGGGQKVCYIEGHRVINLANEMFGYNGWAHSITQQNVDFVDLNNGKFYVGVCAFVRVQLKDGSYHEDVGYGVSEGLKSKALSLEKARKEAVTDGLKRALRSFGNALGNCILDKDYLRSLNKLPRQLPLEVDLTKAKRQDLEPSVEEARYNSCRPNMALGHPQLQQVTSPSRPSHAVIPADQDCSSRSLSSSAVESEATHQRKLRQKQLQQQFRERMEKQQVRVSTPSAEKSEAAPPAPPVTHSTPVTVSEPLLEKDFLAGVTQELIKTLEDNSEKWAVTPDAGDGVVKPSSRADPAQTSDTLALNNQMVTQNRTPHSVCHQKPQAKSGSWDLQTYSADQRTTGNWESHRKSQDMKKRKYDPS

[17] = molecular target: T7, DNA repair and recombination protein RAD54-like (Homo sapiens, UniProt Q92698); test: inhibitors of human RAD54 branch migration, confirmation, biochemical, fluorescence, cherry-picked samples, dose series (AID 651657); assay type: functional
T7 sequence (Q92698 whole entry): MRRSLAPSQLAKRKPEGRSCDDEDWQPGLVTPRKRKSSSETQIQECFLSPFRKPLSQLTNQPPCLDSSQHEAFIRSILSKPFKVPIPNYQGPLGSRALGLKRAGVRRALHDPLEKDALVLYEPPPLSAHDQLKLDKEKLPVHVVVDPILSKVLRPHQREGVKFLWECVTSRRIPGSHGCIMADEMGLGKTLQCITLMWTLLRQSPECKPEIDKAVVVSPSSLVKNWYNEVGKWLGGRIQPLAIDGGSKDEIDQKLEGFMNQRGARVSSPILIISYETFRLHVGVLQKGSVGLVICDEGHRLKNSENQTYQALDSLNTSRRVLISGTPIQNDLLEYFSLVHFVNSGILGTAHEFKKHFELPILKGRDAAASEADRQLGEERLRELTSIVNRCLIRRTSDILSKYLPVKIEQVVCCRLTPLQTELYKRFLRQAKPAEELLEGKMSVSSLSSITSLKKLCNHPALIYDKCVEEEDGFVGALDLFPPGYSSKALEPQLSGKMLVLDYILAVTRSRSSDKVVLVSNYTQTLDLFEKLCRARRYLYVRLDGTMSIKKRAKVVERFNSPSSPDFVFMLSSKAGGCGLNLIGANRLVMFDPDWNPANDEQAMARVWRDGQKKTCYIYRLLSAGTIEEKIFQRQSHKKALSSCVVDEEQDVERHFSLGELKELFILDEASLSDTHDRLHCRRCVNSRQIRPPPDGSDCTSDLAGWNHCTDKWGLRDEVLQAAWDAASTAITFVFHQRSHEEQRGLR

[18] = Counterscreen for activators of the function of SWI/SNF related, matrix associated, actin dependent regulator of chromatin, subfamily a, member 2 (SMARCA2, BRM): Luminescence-based cell-based high throughput dose response assay to identify non-selective compounds using the VP16 reporter assay.; assay type: functional
[19] = molecular target: Tyrosine-protein phosphatase non-receptor type 22 (Homo sapiens, UniProt Q9Y2R2); test: LYP phosphatase inhibition for selectivity, dose response, selectivity assay for LMPTP inhibitor project, biochemical, fluorescence, LYP catalytic domain (AID 652006); assay type: functional; details: read-out: IC50_Mean
Sequence of Tyrosine-protein phosphatase non-receptor type 22 (Q9Y2R2 whole entry, the tested form may be a part): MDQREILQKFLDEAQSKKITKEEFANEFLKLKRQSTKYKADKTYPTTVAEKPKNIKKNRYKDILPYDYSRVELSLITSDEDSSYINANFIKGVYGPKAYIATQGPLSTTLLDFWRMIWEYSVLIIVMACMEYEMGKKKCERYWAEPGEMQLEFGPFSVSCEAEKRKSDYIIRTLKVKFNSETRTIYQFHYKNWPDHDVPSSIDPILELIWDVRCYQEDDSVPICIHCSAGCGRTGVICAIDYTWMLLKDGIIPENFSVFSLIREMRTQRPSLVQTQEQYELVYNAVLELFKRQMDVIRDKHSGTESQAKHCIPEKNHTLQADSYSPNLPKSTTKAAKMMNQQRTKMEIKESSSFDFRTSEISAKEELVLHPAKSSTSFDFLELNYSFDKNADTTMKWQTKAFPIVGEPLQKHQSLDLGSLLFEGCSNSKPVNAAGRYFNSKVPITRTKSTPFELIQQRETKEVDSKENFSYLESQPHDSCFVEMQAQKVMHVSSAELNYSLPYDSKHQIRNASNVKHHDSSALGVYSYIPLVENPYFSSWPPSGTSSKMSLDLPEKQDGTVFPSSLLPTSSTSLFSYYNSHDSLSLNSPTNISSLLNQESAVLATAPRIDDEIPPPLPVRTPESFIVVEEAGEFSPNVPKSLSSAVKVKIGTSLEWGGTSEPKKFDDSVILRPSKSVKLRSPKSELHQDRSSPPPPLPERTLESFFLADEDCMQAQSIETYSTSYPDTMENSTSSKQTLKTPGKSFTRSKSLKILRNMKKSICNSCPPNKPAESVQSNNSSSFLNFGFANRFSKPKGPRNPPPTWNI

[20] = molecular target: SWI/SNF-related matrix-associated actin-dependent regulator of chromatin subfamily A member 2 (Homo sapiens, UniProt P51531); test: Luminescence-based cell-based high throughput dose response assay to identify activators of the function of SWI/SNF related, matrix associated, actin dependent regulator of chromatin, subfamily a, member 2 (SMARCA2, BRM).; assay type: functional
Sequence of SWI/SNF-related matrix-associated actin-dependent regulator of chromatin subfamily A member 2 (P51531 whole entry): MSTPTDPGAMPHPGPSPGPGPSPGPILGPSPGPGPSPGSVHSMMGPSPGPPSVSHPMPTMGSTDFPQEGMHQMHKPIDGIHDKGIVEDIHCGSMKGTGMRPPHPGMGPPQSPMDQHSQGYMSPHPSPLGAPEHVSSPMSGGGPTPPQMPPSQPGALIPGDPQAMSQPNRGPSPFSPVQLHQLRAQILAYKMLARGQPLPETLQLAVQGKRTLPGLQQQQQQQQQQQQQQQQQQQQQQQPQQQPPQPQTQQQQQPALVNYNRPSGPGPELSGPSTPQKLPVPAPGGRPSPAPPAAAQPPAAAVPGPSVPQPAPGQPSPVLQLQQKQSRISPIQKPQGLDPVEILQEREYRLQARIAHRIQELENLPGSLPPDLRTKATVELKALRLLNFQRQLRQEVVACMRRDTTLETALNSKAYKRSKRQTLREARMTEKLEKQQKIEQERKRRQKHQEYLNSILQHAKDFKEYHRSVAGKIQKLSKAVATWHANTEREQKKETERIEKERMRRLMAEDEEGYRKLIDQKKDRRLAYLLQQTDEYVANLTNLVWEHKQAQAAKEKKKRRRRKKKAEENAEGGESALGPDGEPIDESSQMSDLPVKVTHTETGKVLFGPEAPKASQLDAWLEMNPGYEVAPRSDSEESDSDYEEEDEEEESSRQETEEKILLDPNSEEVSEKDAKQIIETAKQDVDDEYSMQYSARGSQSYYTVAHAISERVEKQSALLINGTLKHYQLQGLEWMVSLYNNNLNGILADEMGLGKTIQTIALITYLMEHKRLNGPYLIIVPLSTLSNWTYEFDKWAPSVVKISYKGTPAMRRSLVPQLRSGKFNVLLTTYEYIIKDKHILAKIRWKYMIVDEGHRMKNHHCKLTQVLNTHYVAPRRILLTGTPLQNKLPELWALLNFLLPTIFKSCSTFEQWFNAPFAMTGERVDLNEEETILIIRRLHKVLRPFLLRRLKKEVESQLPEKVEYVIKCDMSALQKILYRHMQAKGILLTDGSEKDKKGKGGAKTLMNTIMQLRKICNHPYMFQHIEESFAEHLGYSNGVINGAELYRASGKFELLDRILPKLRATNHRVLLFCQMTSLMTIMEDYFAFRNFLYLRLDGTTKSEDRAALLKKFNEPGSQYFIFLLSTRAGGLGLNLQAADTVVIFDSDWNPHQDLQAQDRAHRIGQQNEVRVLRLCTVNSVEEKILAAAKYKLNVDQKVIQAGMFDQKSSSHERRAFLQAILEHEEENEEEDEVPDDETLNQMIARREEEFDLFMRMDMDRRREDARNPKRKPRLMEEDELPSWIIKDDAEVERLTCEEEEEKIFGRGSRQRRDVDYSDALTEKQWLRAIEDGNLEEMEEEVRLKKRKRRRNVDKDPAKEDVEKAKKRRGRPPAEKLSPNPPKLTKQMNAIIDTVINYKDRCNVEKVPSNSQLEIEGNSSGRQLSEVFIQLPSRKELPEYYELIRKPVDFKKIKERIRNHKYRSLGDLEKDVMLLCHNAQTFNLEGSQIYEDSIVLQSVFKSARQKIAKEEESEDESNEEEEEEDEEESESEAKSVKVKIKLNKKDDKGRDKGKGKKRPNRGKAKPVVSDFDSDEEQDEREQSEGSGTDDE

[21] = molecular target: T5, Low molecular weight phosphotyrosine protein phosphatase; assay type: functional; details: read-out: IC50_Mean; remark: listed apart in the source

With `CCN1C(=O)C(CC(=O)Nc2ccc(Br)cc2)N(CCCc2ccccc2)C1=S` (stereo unspecified) the EC50 [1] was 6.98 µM (active), the EC50 [2] was 1.98 µM (active) and the EC50 [3] was 3.15 µM (active). The EC50 [4] was 16.1 µM (active), the IC50 [5] was 41.5 µM (inactive) and the EC50 [6] was > 60 µM (not active). For the same compound, the AC50 [7] was 14.1 µM (inconclusive), the IC50 [8] was 6.6 µM (active) and the IC50 [9] was 5.99 µM (not active). For the same compound, the EC50 [10] was 15.3 µM (active), the IC50 [11] was 5.93 µM (active) and the EC50 [12] was 2.31 µM (active).
With `COc1ccc(C(=O)OCC(=O)c2c[nH]c3ccccc23)cc1OC` the AC50 [13] was 164 µM (active) and the EC50 [14] was > 20 µM (inactive).
For `Cc1nccc2cc3[nH]c4ccccc4c3cc12`, the IC50 [15] was 2.59 µM (active), the AC50 [16] was 1.96 µM (active) and the AC50 [17] was 2.49 µM (active). For the same compound, the EC50 [18] was > 91.2 µM (inactive), the IC50 [19] was 52.5 µM (inactive) and the EC50 [20] was 5.87 µM (active). For the same compound, the IC50 [21] was 3.18 µM (active).
